# Test results taken from ChEMBL document CHEMBL3734705, “Synthesis and in vitro cytotoxicity of novel C-12 substituted-14-deoxy-andrographolide derivatives as potent anti-cancer agents” (2015).
# Key:
# A549 = assay: Cytotoxicity against human A549 cells assessed as growth inhibition at 10 uM after 48 hrs by SRB assay; format: functional; conditions: A549, 48 h, read-out: GI
# [1] = Cytotoxicity against human SNB75 cells assessed as growth level at 10 uM after 48 hrs by SRB assay; format: functional, SNB-75
# 786-0 [2] = assay: Cytotoxicity against human 786-0 cells assessed as growth level at 10 uM after 48 hrs by SRB assay; format: functional
# [3] = Cytotoxicity against human SF295 cells assessed as growth inhibition at 10 uM after 48 hrs by SRB assay; format: functional; conditions: SF-295, 48 h, read-out: GI
# [4] = Cytotoxicity against human Hs578T cells assessed as growth level at 10 uM after 48 hrs by SRB assay; format: functional, Hs-578T
# [5] = Cytotoxicity against human COLO205 cells assessed as growth inhibition at 10 uM after 48 hrs by SRB assay; format: functional; conditions: COLO 205, 48 h, read-out: GI
# ACHN = assay: Cytotoxicity against human ACHN cells assessed as growth level at 10 uM after 48 hrs by SRB assay; format: functional
# [6] = Cytotoxicity against human HCC2998 cells assessed as growth inhibition at 10 uM after 48 hrs by SRB assay; format: functional; conditions: HCC 2998, 48 h, read-out: GI
# EKVX = assay: Cytotoxicity against human EKVX cells assessed as growth inhibition at 10 uM after 48 hrs by SRB assay; format: functional; conditions: read-out: GI
# [7] = Cytotoxicity against human HCC2998 cells assessed as growth level at 10 uM after 48 hrs by SRB assay; format: functional, HCC 2998
# 786-0 [8] = assay: Cytotoxicity against human 786-0 cells assessed as growth inhibition at 10 uM after 48 hrs by SRB assay; format: functional; conditions: 786-0, 48 h, read-out: GI
# KM12 = assay: Cytotoxicity against human KM12 cells assessed as growth inhibition at 10 uM after 48 hrs by SRB assay; format: functional; conditions: KM12, 48 h, read-out: GI
# SR = assay: Cytotoxicity against human SR cells assessed as growth level at 10 uM after 48 hrs by SRB assay; format: functional
# U-251 [9] = assay: Cytotoxicity against human U251 cells assessed as growth inhibition at 10 uM after 48 hrs by SRB assay; format: functional; conditions: U-251, 48 h, read-out: GI
# MDA-MB-435 [10] = assay: Cytotoxicity against human MDA-MB-435 cells assessed as growth level at 10 uM after 48 hrs by SRB assay; format: functional
# [11] = Cytotoxicity against human OVCAR3 cells assessed as growth level at 10 uM after 48 hrs by SRB assay; format: functional, OVCAR-3
# MCF7 = assay: Cytotoxicity against human MCF7 cells assessed as growth inhibition at 10 uM after 48 hrs by SRB assay; format: functional; conditions: MCF7, 48 h, read-out: GI
# [12] = Cytotoxicity against human OVCAR3 cells assessed as growth inhibition at 10 uM after 48 hrs by SRB assay; format: functional; conditions: OVCAR-3, 48 h, read-out: GI
# [13] = Cytotoxicity against human COLO205 cells assessed as growth level at 10 uM after 48 hrs by SRB assay; format: functional, COLO 205
# [14] = Cytotoxicity against human OVCAR4 cells assessed as growth inhibition at 10 uM after 48 hrs by SRB assay; format: functional; conditions: OVCAR-4, 48 h, read-out: GI
# [15] = Cytotoxicity against human Caki1 cells assessed as growth level at 10 uM after 48 hrs by SRB assay; format: functional, CAKI-1
# [16] = Cytotoxicity against human SKOV3 cells assessed as growth inhibition at 10 uM after 48 hrs by SRB assay; format: functional; conditions: SK-OV-3, 48 h, read-out: GI
# HT-29 = assay: Cytotoxicity against human HT-29 cells assessed as growth level at 10 uM after 48 hrs by SRB assay; format: functional
# [17] = Cytotoxicity against human LOXIMVI cells assessed as growth level at 10 uM after 48 hrs by SRB assay; format: functional, LOX IMVI
# SK-MEL-28 = assay: Cytotoxicity against human SK-MEL-28 cells assessed as growth inhibition at 10 uM after 48 hrs by SRB assay; format: functional; conditions: SK-MEL-28, 48 h, read-out: GI
# [18] = Cytotoxicity against human Caki1 cells assessed as growth inhibition at 10 uM after 48 hrs by SRB assay; format: functional; conditions: CAKI-1, 48 h, read-out: GI
# [19] = Cytotoxicity against human IGROV1 cells assessed as growth level at 10 uM after 48 hrs by SRB assay; format: functional, IGROV-1
# [20] = Cytotoxicity against human SF295 cells assessed as growth level at 10 uM after 48 hrs by SRB assay; format: functional, SF-295
# [21] = Cytotoxicity against human PC3 cells assessed as growth level at 10 uM after 48 hrs by SRB assay; format: functional, PC-3
# [22] = Cytotoxicity against human SW620 cells assessed as growth inhibition at 10 uM after 48 hrs by SRB assay; format: functional; conditions: SW-620, 48 h, read-out: GI
# [23] = Cytotoxicity against human DU145 cells assessed as growth inhibition at 10 uM after 48 hrs by SRB assay; format: functional; conditions: DU-145, 48 h, read-out: GI
# M14 = assay: Cytotoxicity against human M14 cells assessed as growth level at 10 uM after 48 hrs by SRB assay; format: functional
# MDA-MB-435 [24] = assay: Cytotoxicity against human MDA-MB-435 cells assessed as growth inhibition at 10 uM after 48 hrs by SRB assay; format: functional; conditions: MDA-MB-435, 48 h, read-out: GI
# [25] = Cytotoxicity against human HOP92 cells assessed as growth level at 10 uM after 48 hrs by SRB assay; format: functional, HOP-92
# [26] = Cytotoxicity against human HCT116 cells assessed as growth level at 10 uM after 48 hrs by SRB assay; format: functional, HCT-116
# [27] = Cytotoxicity against human SF268 cells assessed as growth inhibition at 10 uM after 48 hrs by SRB assay; format: functional; conditions: SF-268, 48 h, read-out: GI
# [28] = Cytotoxicity against human OVCAR4 cells assessed as growth level at 10 uM after 48 hrs by SRB assay; format: functional, OVCAR-4
# NCI-H522 = assay: Cytotoxicity against human NCI-H522 cells assessed as growth level at 10 uM after 48 hrs by SRB assay; format: functional
# U-251 [29] = assay: Cytotoxicity against human U251 cells assessed as growth level at 10 uM after 48 hrs by SRB assay; format: functional
# [30] = Cytotoxicity against human SNB19 cells assessed as growth inhibition at 10 uM after 48 hrs by SRB assay; format: functional; conditions: SNB-19, 48 h, read-out: GI
# NCI-H23 = assay: Cytotoxicity against human NCI-H23 cells assessed as growth level at 10 uM after 48 hrs by SRB assay; format: functional
# [31] = Cytotoxicity against human DU145 cells assessed as growth level at 10 uM after 48 hrs by SRB assay; format: functional, DU-145
# K562 = assay: Cytotoxicity against human K562 cells assessed as growth inhibition at 10 uM after 48 hrs by SRB assay; format: functional; conditions: K562, 48 h, read-out: GI
# SK-MEL-5 = assay: Cytotoxicity against human SK-MEL-5 cells assessed as growth inhibition at 10 uM after 48 hrs by SRB assay; format: functional; conditions: SK-MEL-5, 48 h, read-out: GI
compound,measurement,setting,value
C=C1CC[C@@H]2[C@](C)(COC(C)=O)[C@H](OC(C)=O)CC[C@@]2(C)[C@@H]1CC(NCc1cccc(Cl)c1)C1=CCOC1=O (mixture of isomers),inhibition of growth at 10 µM,A549,45.8%
same,Activity,[1],85.86%
same,Activity,786-0 [2],62%
same,inhibition of growth at 10 µM,[3],14.1%
same,Activity,[4],94.35%
same,inhibition of growth at 10 µM,[5],63.2%
same,Activity,ACHN,41.58%
same,inhibition of growth at 10 µM,[6],15.4%
same,inhibition of growth at 10 µM,EKVX,22.1%
same,Activity,[7],84.55%
same,inhibition of growth at 10 µM,786-0 [8],38%
same,inhibition of growth at 10 µM,KM12,53.2%
same,Activity,SR,11.54%
same,inhibition of growth at 10 µM,U-251 [9],69.1%
same,Activity,MDA-MB-435 [10],51.65%
same,Activity,[11],47.44%
same,inhibition of growth at 10 µM,MCF7,57%
same,inhibition of growth at 10 µM,[12],52.6%
same,Activity,[13],36.77%
same,inhibition of growth at 10 µM,[14],49.6%
same,Activity,[15],48.33%
same,inhibition of growth at 10 µM,[16],26.9%
same,Activity,HT-29,25.54%
same,Activity,[17],12.71%
same,inhibition of growth at 10 µM,SK-MEL-28,23.4%
same,inhibition of growth at 10 µM,[18],51.7%
same,Activity,[19],64.14%
same,Activity,[20],85.92%
same,Activity,[21],30.08%
same,inhibition of growth at 10 µM,[22],61.7%
same,inhibition of growth at 10 µM,[23],18.1%
same,Activity,M14,55.02%
same,inhibition of growth at 10 µM,MDA-MB-435 [24],48.4%
same,Activity,[25],66.34%
same,Activity,[26],35.94%
same,inhibition of growth at 10 µM,[27],46.7%
same,Activity,[28],50.4%
same,Activity,NCI-H522,52.45%
same,Activity,U-251 [29],30.91%
same,inhibition of growth at 10 µM,[30],44.4%
same,Activity,NCI-H23,52.71%
same,Activity,[31],81.85%
same,inhibition of growth at 10 µM,K562,81.5%
C=C1CC[C@@H]2[C@](C)(COC(C)=O)[C@H](OC(C)=O)CC[C@@]2(C)[C@@H]1CC(NCc1ccc(F)cc1)C1=CCOC1=O (mixture of isomers),inhibition of growth at 10 µM,A549,42.1%
same,Activity,[1],58.06%
same,Activity,786-0 [2],86.82%
same,inhibition of growth at 10 µM,[3],3.87%
same,Activity,[4],72.47%
same,inhibition of growth at 10 µM,[5],57.9%
same,Activity,ACHN,50.93%
same,inhibition of growth at 10 µM,[6],10.7%
same,inhibition of growth at 10 µM,EKVX,50%
same,Activity,[7],89.3%
same,inhibition of growth at 10 µM,786-0 [8],13.2%
same,inhibition of growth at 10 µM,KM12,53.5%
same,Activity,SR,7.69%
same,inhibition of growth at 10 µM,U-251 [9],52%
same,Activity,MDA-MB-435 [10],32.73%
same,Activity,[11],23.7%
same,inhibition of growth at 10 µM,MCF7,83.4%
same,inhibition of growth at 10 µM,[12],76.3%
same,Activity,[13],42.15%
same,inhibition of growth at 10 µM,[14],69.1%
same,Activity,[15],45.98%
same,inhibition of growth at 10 µM,[16],5.68%
same,Activity,HT-29,21.32%
same,Activity,[17],9.33%
same,inhibition of growth at 10 µM,SK-MEL-5,88.2%
same,inhibition of growth at 10 µM,SK-MEL-28,22.2%
same,inhibition of growth at 10 µM,[18],54%
same,Activity,[19],48.35%
same,Activity,[20],96.13%
same,Activity,[21],20.82%
same,inhibition of growth at 10 µM,[22],68%
same,inhibition of growth at 10 µM,[23],30.2%
same,Activity,M14,37.3%
same,inhibition of growth at 10 µM,MDA-MB-435 [24],67.3%
same,Activity,[25],18.82%
same,Activity,[26],33.73%
same,inhibition of growth at 10 µM,[27],37.4%
same,Activity,[28],30.87%
same,Activity,NCI-H522,20.93%
same,Activity,U-251 [29],48.01%
same,Activity,NCI-H23,57.85%
same,Activity,[31],69.82%
same,inhibition of growth at 10 µM,K562,81.2%
